Reference: the supplement of paper PMC11208160

Experiment: recombinant UMI read abundance after kanamycin selection (control-corrected) (log10(CPM+1)); higher = more efficient recombination; extreme values may be limits of the assay; sequences stand for … in AGTGCAGAGAAAATCGGCCAGTTTTCTCTGCCTGCAGTCCGCATGCCGTGGGACCCCTTGGGTTCTAACCTGTTGCCTAGATTTATGCAGCGGACTGCCTTTCTCCCAAAGTGATAAACCGG…AGGTTGGTTTCACT; site = the 11-nt donor
In short: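 Reported values are log10(CPM+1) from a pooled Escherichia coli screen of donor and donor-binding-loop pairs for the IS621 bridge recombinase. Selection used IPTG (0.07 mM) plus kanamycin, against unselected plating, each in two replicates. Recombinant UMIs were amplified across the donor–target junction, sequenced, converted to CPM, averaged over replicates and scaled by control-derived factors.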
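Also: IS621 bridge recombinase in Escherichia coli cells against a fixed T5 target plasmid.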

Sequence	recombinant UMI read abundance (log10)
CTAGCTGCATGGACCGGTTTTCCCGGTAATCCGTATTTGTG (site TTAGCTGCTCA)	0.0211
CTAGCTTCATGGACCGGTTTTCCCGGTAATCCGTATTTGTG (site CTAGCTTCTCA)	2.19
CTAGGTGCATGGACCGGTTTTCCCGGTAATCCGTATTTGAT (site CAAGGTGCTAT)	1.59
CTAGGTGCATGGACCGGTTTTCCCGGTAATCCGTATTTGAT (site CCAGGTGCTAT)	1.39
CTAGGTGCATGGACCGGTTTTCCCGGTAATCCGTATTTGAT (site CGAGGTGCTAT)	0.0806
CTAGGTGCATGGACCGGTTTTCCCGGTAATCCGTATTTGAT (site CTAGGTGCTAT)	2.14
CTAGTAACATGGACCGGTTTTCCCGGTAATCCGTATTTGAC (site CTAGTAACTGT)	3.1
CTAGTAACATGGACCGGTTTTCCCGGTAATCCGTATTTGAC (site CTAGTACCTGT)	0
CTAGTAACATGGACCGGTTTTCCCGGTAATCCGTATTTGAC (site CTAGTAGCTGT)	2.73
CTAGTAACATGGACCGGTTTTCCCGGTAATCCGTATTTGAC (site CTAGTATCTGT)	1.83
CTAGTCACATGGACCGGTTTTCCCGGTAATCCGTATTTGAC (site CTAGTATCTGT)	0
CTAGTCACATGGACCGGTTTTCCCGGTAATCCGTATTTGAC (site CTAGTCACTGT)	2.59
CTAGTTTCATGGACCGGTTTTCCCGGTAATCCGTATTTGAA (site CTAGTATCTGT)	0
CTAGTTTCATGGACCGGTTTTCCCGGTAATCCGTATTTGAA (site CTAGTTTCTTT)	1.85
CTAGTTTCATGGACCGGTTTTCCCGGTAATCCGTATTTGCC (site CTAGTATCTGT)	0
CTAGTTTCATGGACCGGTTTTCCCGGTAATCCGTATTTGCC (site CTAGTTTCTGG)	2.53

Sequence	recombinant UMI read abundance (log10)
CTATAATCATGGACCGGTTTTCCCGGTAATCCGTATTTGCT (site CGATCATCTAG)	0
CTATAATCATGGACCGGTTTTCCCGGTAATCCGTATTTGCT (site CTATAATCTAG)	3.13
CTATATCCATGGACCGGTTTTCCCGGTAATCCGTATTTGAG (site CTATATCCTCT)	1.41
CTATCCTCATGGACCGGTTTTCCCGGTAATCCGTATTTGCT (site CGATCATCTAG)	0
CTATCCTCATGGACCGGTTTTCCCGGTAATCCGTATTTGCT (site CTATCCTCTAG)	3.09
CTATCCTCATGGACCGGTTTTCCCGGTAATCCGTATTTGTT (site CTATCCTCTAA)	2.79
CTATTAACATGGACCGGTTTTCCCGGTAATCCGTATTTGGA (site CTAATAACTTC)	0.484
CTATTAACATGGACCGGTTTTCCCGGTAATCCGTATTTGGA (site CTACTAACTTC)	0.342
CTATTAACATGGACCGGTTTTCCCGGTAATCCGTATTTGGA (site CTAGTAACTTC)	0.397
CTATTAACATGGACCGGTTTTCCCGGTAATCCGTATTTGGA (site CTATTAACTTC)	1.64
CTATTGGCATGGACCGGTTTTCCCGGTAATCCGTATTTGTA (site CTATTGGCTTA)	1.84
CTATTGTCATGGACCGGTTTTCCCGGTAATCCGTATTTGAC (site CTAGTATCTGT)	0
CTATTGTCATGGACCGGTTTTCCCGGTAATCCGTATTTGAC (site CTATTGTCTGT)	0
CTCAAAGCATGGACCGGTTTTCCCGGTAATCCGTATTTGCG (site CTCAAAGCTCG)	0.762
CTCAGCCCATGGACCGGTTTTCCCGGTAATCCGTATTTGCC (site CTCAGCCCTGG)	0
CTCAGCTCATGGACCGGTTTTCCCGGTAATCCGTATTTGAA (site CTCAGCTCTTT)	2.08
